Data from patent US8058285B2, “Substituted pyrido [3′, 2′: 4, 5] thieno [3, 2-D] pyrimidines and pyrido [3′, 2′: 4, 5] furo [3, 2-D] pyrimidines used as inhibitors of the PDE-4 and/or the release of TNF-ALPHA” (The Medicines Company (Leipzig) GmbH, priority 2004, dated 2011).
Counter-ions that a name gives are not always drawn.

target: T1, PDE-4A (Homo sapiens, UniProt P27815); test: PDE-4A inhibitory assay (SPA); format: biochemical
T1 construct: PDE-4A catalytic domain comprising amino acids 342-704; made in house; host or cells: Escherichia coli
T1 sequence (P27815 342-704): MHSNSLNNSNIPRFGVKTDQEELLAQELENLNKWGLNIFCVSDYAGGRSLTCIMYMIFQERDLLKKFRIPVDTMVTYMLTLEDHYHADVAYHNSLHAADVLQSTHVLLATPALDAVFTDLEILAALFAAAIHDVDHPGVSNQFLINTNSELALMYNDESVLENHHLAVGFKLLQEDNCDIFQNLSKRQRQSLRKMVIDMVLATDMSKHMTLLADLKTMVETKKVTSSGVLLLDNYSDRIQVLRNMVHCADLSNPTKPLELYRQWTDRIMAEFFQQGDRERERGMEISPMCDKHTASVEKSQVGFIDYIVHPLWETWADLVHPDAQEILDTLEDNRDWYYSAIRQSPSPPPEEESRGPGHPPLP
Text: Human recombinant PDE-4A catalytic domain comprising amino acids 342-704 was cloned into Escherichia coli and expressed, as described by W. Richter et al., Protein Expression and Purification (2000) 19: 375-383. The other posphodiesterases were either obtained from cell lines of human origin (TPH1 monocytes line for PDE-1, MCF7 for PDE-5) or expressed recombinantly in sf9 insect cells (for PDE-3A, PDE-3B, PDE-7A and PDE-4D) in accordance with an adapted method by Luckow, V. A. et al., in: Recombinant DNA Technology & Applications., (1991) eds. Prokop, Bajpai, R. K. & Ho, C. S., pp 97-152.
The phosphodiesterase activity was determined by the SPA assay as described by the manufacturer Amersham Biosciences and by Horton J. K and Baxendale P. M., Methods Mol. Biol. (1995) 41: 91-105.
The reaction mixtures contained 100 mM Tris-HCl (pH 7.5), 5 mM MgCl2, 3.8 mM 2-mercaptoethanol, and 1 μM cAMP or cGMP as a substrate, the inhibitors at different concentrations and also further components required for the detection of the individual isoenzymes (see below). The reaction was started by adding the enzyme. The operating volume is 100 μl in the wells of a white 96-Well microtiter plate. The test substances were produced as stock solutions in DMSO. The DMSO concentration in the reaction batch was 1% v/v. The PDE activity is not impaired with this DMSO concentration. Having started the reaction by the addition of enzyme, the samples were incubated at 22° C. for 20 min. The reaction was stopped by the addition of SPA bead suspension which contains the zinc sulfate concentration provided according to the manufacturer. Then, the beads are allowed to sediment for 30 min and the plates are analyzed on the luminescence microtiter plate reader Fluostar Optima (BMG Labtechologies).
[^3H]-cAMP was used as a substrate for determining the activity of PDE-2, -3, -4 and -7 and [^3H]-cGMP for determining the activity of PDE-5. The non-specific enzyme activities were determined in the presence of 100 μM rolipram (for PDE-4) and in the presence of 100 μM IBMX (for PDE-3 and -5) and subtracted from the test values. The incubation samples of the PDE-3 assay contain 10 μM rolipram to inhibit possible contaminations by PDE-4. The PDE-2 activity is tested using a SPA assay by Amersham Biosciences in the presence of the PDE-2 activator 5 μM cGMP. […] The selectivity as to PDEs 2, 3 and 5 has a factor of 100 to 10 000.

| Compound | IC50 [nM] |
| --- | --- |
| CCOc1nc(N2CCNCC2)nc2c1sc1nc(N3CCOCC3)cc(C)c12 [4-Ethoxy-9-methyl-7-morpholino-2-(piperazin-1-yl)-pyrido[3′,2′:4,5]thieno[3,2-d]pyrimidine] | 2 to 50 |
| CCOc1nc(N2CCNCC2)nc2c1sc1nc(N3CCSCC3)cc(C)c12 [4-Ethoxy-9-methyl-7-thiomorpholino-2-(piperazin-1-yl)-pyrido[3′,2′:4,5]thieno[3,2-d]pyrimidine-hydrochloride] | 2 to 50 |
| CCOc1nc(N2CCNCC2)nc2c1sc1nc(-c3ccccc3)c(Cc3ccc([N+](=O)[O-])cc3)c(C)c12 [4-Ethoxy-9-methyl-8-(4-nitro-benzyl)-7-phenyl-2-(piperazin-1-yl)-pyrido[3′,2′:4,5]thieno[3,2-d]pyrimidine] | 2 to 50 |
| CCOc1nc(N2CCNCC2)nc2c1sc1nc(-c3ccc(-n4cccc4)cc3)cc(C(F)(F)F)c12 [4-Ethoxy-9-trifluoromethyl-2-piperazin-1-yl-7-(4-(1H-pyrrol-1-yl)-phenyl)-pyrido[3′,2′:4,5]thieno[3,2-d]pyrimidine] | < 2 |
| CCOC(=O)c1ccc(-c2cc(C(F)(F)F)c3c(n2)sc2c(OCC)nc(N4CCNCC4)nc23)cc1 [4-[4-Ethoxy-2-(piperazin-1-yl)-9-trifluoromethyl-pyrido[3′,2′:4,5]thieno[3,2-d]pyrimidin-7-yl]-benzoic acid ethyl ester] | < 2 |
| CCOc1nc(N2CCNCC2)nc2c1sc1nc3c(c(C(F)(F)F)c12)CCc1cc(OC)ccc1-3 [5,6-Dihydro-11-ethoxy-3′-methoxy-9-piperazin-1-yl-7-trifluoromethyl-benzo[h]pyrimido[4′,5′:4,5]thieno[2,3-b]quinoline] | < 2 |
| CCOc1nc(N2CCNCC2)nc2c1sc1nc(-c3ccc4c(c3)OCCO4)cc(C(F)(F)F)c12 [7-(2,3-Dihydrobenzo[b][1,4]dioxin-6-yl)-4-ethoxy-2-(piperazin-1-yl)-9-trifluoromethyl-pyrido[3′,2′:4,5]thieno[3,2-d]pyrimidine] | < 2 |
| CCCc1nc(N2CCNCC2)c2sc3nc(-c4ccc(OC)c(OC)c4)cc(C)c3c2n1 [7-(3,4-Dimethoxy-phenyl)-9-methyl-4-(piperazin-1-yl)-2-n-propyl-pyrido[3′,2′:4,5]thieno[3,2-d]pyrimidine] | 2 to 50 |
| CCOc1nc(N2CCNCC2)nc2c1sc1nc(-c3cccc(N)c3)cc(C(F)(F)F)c12 [7-(3-Amino-phenyl)-4-Ethoxy-2-piperazin-1-yl-9-trifluoromethyl-pyrido[3′,2′:4,5]thieno[3,2-d]pyrimidine] | 2 to 50 |
| CCOc1nc(N2CCNCC2)nc2c1sc1nc(-c3cccc(C#N)c3)cc(C(F)(F)F)c12 [7-(3-Cyano-phenyl)-4-ethoxy-2-piperazin-1-yl-9-trifluoromethyl-pyrido[3′,2′:4,5]thieno[3,2-d]pyrimidine] | < 2 |

Other lines, results leading:

| IC50 [nM] | Compound |
| --- | --- |
| 2 to 50 | CCOc1nc(N2CCNCC2)nc2c1sc1nc(-c3ccc(C)cc3)cc(C)c12 [4-Ethoxy-9-methyl-7-(4-methyl-phenyl)-2-(piperazin-1-yl)-pyrido[3′,2′:4,5]thieno[3,2-d]pyrimidine] |
| 2 to 50 | CCOc1nc(N2CCNCC2)nc2c1sc1nc(-c3ccc(SC)cc3)cc(C)c12 [4-Ethoxy-9-methyl-7-(4-methylthio-phenyl)-2-piperazin-1-yl-pyrido[3′,2′:4,5]thieno[3,2-d]pyrimidine] |
| < 2 | CCOc1nc(N2CCNCC2)nc2c1sc1nc(-c3ccc(Oc4ccccc4)cc3)nc(C)c12 [4-Ethoxy-9-methyl-7-(4-phenoxy-phenyl)-2-piperazin-1-yl-thieno[2,3-d:4,5-d′]dipyrimidine] |
| 2 to 50 | CCOc1nc(N2CCNCC2)nc2c1sc1nc(-c3ccccc3)nc(C)c12 [4-Ethoxy-9-methyl-7-phenyl-2-piperazin-1-yl-thieno[2,3-d:4,5-d′]dipyrimidine] |
| 2 to 50 | CCOc1nc(N2CCNCC2)nc2c1sc1nc(-c3cccs3)cc(C)c12 [4-Ethoxy-9-methyl-7-thien-2-yl-2-(piperazin-1-yl)-pyrido[3′,2′:4,5]thieno[3,2-d]pyrimidine] |
